# In patent US20260146035A1, “FUSED BICYCLIC COMPOUNDS AND THEIR USE AS MER AND AXL INHIBITORS” (DONG-A ST CO., LTD., priority 2022, published 2026):
# Where two headings read alike, the source gives them in different places.
# Legend:
# [1] = molecular target: T1, human MER (528-end) (Homo sapiens, UniProt Q12866); assay: HTRF kinase activity biochemical assay, MER; settings: 10 μM ATP, 30 minutes pre-incubation; read-out: HTRF MERTK IC50
# T1 construct: human MER (528-end); purchased Camnabio, Japan
# T1 sequence (Q12866 528-999 limits assumed): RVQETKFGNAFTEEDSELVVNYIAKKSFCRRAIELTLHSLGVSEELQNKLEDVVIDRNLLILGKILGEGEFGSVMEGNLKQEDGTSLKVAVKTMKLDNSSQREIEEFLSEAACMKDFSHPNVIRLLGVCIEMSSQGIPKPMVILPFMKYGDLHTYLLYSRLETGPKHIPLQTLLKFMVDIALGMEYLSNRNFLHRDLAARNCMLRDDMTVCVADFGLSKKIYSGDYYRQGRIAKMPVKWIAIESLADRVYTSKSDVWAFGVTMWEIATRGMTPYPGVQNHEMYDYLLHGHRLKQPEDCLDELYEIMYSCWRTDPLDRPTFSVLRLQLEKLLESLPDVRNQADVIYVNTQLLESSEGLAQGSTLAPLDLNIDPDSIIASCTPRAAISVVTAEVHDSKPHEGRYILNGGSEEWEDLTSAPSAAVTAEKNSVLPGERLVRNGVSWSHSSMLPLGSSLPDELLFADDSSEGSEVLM
# [2] = molecular target: T2, human AXL (473-end) (Homo sapiens, UniProt P30530); assay: HTRF kinase activity biochemical assay, AXL; settings: 10 μM ATP, 30 minutes pre-incubation
# T2 construct: human AXL (473-end); purchased SignalChem, Canada
# T2 sequence (P30530 473-894 limits assumed): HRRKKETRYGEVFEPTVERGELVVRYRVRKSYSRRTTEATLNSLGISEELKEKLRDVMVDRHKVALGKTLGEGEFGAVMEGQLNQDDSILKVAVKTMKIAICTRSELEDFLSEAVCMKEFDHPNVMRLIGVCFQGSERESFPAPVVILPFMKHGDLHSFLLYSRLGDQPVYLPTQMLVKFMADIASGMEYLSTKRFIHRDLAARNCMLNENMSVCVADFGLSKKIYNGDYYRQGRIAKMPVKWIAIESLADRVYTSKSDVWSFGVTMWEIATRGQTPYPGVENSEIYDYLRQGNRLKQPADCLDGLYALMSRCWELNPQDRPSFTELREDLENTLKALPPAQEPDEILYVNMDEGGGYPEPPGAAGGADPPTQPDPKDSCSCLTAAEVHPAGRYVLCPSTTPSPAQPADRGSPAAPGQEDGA
# [3] = molecular target: T3, human TYRO3 (455-end) (Homo sapiens, UniProt Q06418); assay: HTRF kinase activity biochemical assay, TYRO3
# T3 construct: TYRO3 (455-end); purchased SignalChem, Canada
# T3 sequence (Q06418 455-890 limits assumed): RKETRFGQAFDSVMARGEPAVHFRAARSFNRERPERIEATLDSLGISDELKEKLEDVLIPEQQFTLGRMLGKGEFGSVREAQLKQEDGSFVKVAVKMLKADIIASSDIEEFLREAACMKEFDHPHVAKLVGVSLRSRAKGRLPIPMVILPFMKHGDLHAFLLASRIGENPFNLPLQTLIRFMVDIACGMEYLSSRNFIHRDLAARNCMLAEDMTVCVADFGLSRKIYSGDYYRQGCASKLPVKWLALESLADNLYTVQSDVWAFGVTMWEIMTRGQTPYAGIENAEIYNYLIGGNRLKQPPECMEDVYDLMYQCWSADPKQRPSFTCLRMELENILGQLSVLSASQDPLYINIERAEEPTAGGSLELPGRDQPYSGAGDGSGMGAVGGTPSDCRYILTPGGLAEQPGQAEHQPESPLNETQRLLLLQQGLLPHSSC
# [4] = 10 μM ATP, 30 minutes pre-incubation, read-out: HTRF TYRO IC50
SMILES,IC50 [1] [nM],IC50 [2] [nM],"IC50 [3, 4] [nM]",IC50 [3] [nM]
"Cn1ccc(-c2cnc(N)c(C(=O)N[C@H]3CCC[C@@H]3OCc3ccc(-c4ccc5c(c4)CC(F)(F)C5N4CCN(CC(O)CO)CC4)cc3)c2)cc1=O (stereo partly drawn) [Example 63, 6-amino-N-{(1S,2S)-2-[(4-{1-[4-(2,3-dihydroxypropyl)piperazin-1-yl]-2,2-difluoro-2,3-dihydro-1H-inden-5-yl}phenyl)methoxy]cyclopentyl}-1′-methyl-2′-oxo-1′,2′-dihydro[3,4′-bipyridine]-5-carboxamide]",< 10,< 10,100 to 1000,
"Cn1cc(-c2cnc(N)c(C(=O)N[C@H]3CCC[C@@H]3OCc3ccc(-c4ccc5c(c4)CC(F)(F)[C@H]5N4CCN(CCO)CC4)cc3)c2)cn1 [Example 66, 2-amino-N-{(1S,2S)-2-[(4-{(1S)-2,2-difluoro-1-[4-(2-hydroxyethyl)piperazin-1-yl]-2,3-dihydro-1H-inden-5-yl}phenyl)methoxy]cyclopentyl}-5-(1-methyl-1H-pyrazol-4-yl)pyridine-3-carboxamide]",10 to 100,10 to 100,> 1000,
"CC(C)n1ccc2cc(-c3ccc(CO[C@H]4CCC[C@@H]4NC(=O)c4cc(-c5cnn(C)c5)cnc4N)cc3)ccc21 [Example 60, 2-amino-5-(1-methyl-1H-pyrazol-4-yl)-N-[(1S,2S)-2-({4-[1-(propan-2-yl)-1H-indol-5-yl]phenyl}methoxy)cyclopentyl]pyridine-3-carboxamide]",< 10,10 to 100,> 1000,
"Cn1cc(-c2cnc(N)c(C(=O)N[C@H]3CCC[C@@H]3OCc3ccc(-c4ccc5c(cnn5C5CCN(CCO)CC5)c4)cc3)c2)cn1 [Example 111, 2-amino-N-{(1S,2S)-2-[(4-{1-[1-(2-hydroxyethyl)piperidin-4-yl]-1H-indazol-5-yl}phenyl)methoxy]cyclopentyl}-5-(1-methyl-1H-pyrazol-4-yl)pyridine-3-carboxamide]",10 to 100,100 to 1000,> 1000,
"COc1cccc(-c2cnc(N)c(C(=O)N[C@H]3CCC[C@@H]3OCc3ccc(-c4ccc5c(c4)CC[C@@H]5N4CCN(CCO)CC4)cc3)c2)n1 [Example 178, 6′-amino-N-{(1S,2S)-2-[(4-{(1S)-1-[4-(2-hydroxyethyl)piperazin-1-yl]-2,3-dihydro-1H-inden-5-yl}phenyl)methoxy]cyclopentyl}-6-methoxy[2,3′-bipyridine]-5′-carboxamide]",< 10,< 10,10 to 100,
"Cn1cc(-c2cnc(N)c(C(=O)N[C@H]3CCC[C@@H]3OCc3ccc(-c4ccc5c(n4)C(C)(C)C(=O)N5C4CCN(CCO)CC4)cc3)c2)cn1 [Example 73, 2-amino-N-{(1S,2S)-2-[(4-{1-[1-(2-hydroxyethyl)piperidin-4-yl]-3,3-dimethyl-2-oxo-2,3-dihydro-1H-pyrrolo[3,2-b]pyridin-5-yl}phenyl)methoxy]cyclopentyl}-5-(1-methyl-1H-pyrazol-4-yl)pyridine-3-carboxamide]",100 to 1000,> 1000,,100 to 1000
"Cc1cn(C)c2ccc(-c3ccc(CO[C@H]4CCC[C@@H]4NC(=O)c4cc(-c5cnn(C)c5)cnc4N)cc3)cc12 [Example 54, 2-amino-N-[(1S,2S)-2-{[4-(1,3-dimethyl-1H-indol-5-yl)phenyl]methoxy}cyclopentyl]-5-(1-methyl-1H-pyrazol-4-yl)pyridine-3-carboxamide]",10 to 100,10 to 100,> 1000,
"Cn1cc(-c2cnc(N)c(C(=O)N[C@H]3CCC[C@@H]3OCc3ccc(-c4ccc5[nH]ccc5c4)cc3)c2)cn1 [Example 68, 2-amino-N-[(1S,2S)-2-{[4-(1H-indol-5-yl)phenyl]methoxy}cyclopentyl]-5-(1-methyl-1H-pyrazol-4-yl)pyridine-3-carboxamide]",< 10,< 10,100 to 1000,
"Cn1cc(-c2cnc(N)c(C(=O)N[C@H]3CCC[C@@H]3OCc3ccc(-c4ccc5c(c4)CC[C@H]5N4CCN(CC(O)CO)CC4)cc3)c2)cn1 (stereo partly drawn) [Example 101, 2-amino-N-{(1S,2S)-2-[(4-{(1R)-1-[4-(2,3-dihydroxypropyl)piperazin-1-yl]-2,3-dihydro-1H-inden-5-yl}phenyl)methoxy]cyclopentyl}-5-(1-methyl-1H-pyrazol-4-yl)pyridine-3-carboxamide]",10 to 100,10 to 100,> 1000,
"CN1CCN(C2CC(C)(C)c3cc(-c4ccc(CO[C@H]5CCC[C@@H]5NC(=O)c5cc(-c6ccn(C)c(=O)c6)cnc5N)cc4)ccc32)CC1 (stereo partly drawn) [Example 107, 6-amino-N-[(1S,2S)-2-({4-[3,3-dimethyl-1-(4-methylpiperazin-1-yl)-2,3-dihydro-1H-inden-5-yl]phenyl}methoxy)cyclopentyl]-1′-methyl-2′-oxo-1′,2′-dihydro[3,4′-bipyridine]-5-carboxamide]",< 10,< 10,10 to 100,
"Cn1cc(-c2cnc(N)c(C(=O)N[C@H]3CCC[C@@H]3OCc3ccc(-c4cnc5c(c4)CCCN5C4CCN(CCO)CC4)cc3)c2)cn1 [Example 162, 2-amino-N-{(1S,2S)-2-[(4-{8-[1-(2-hydroxyethyl)piperidin-4-yl]-5,6,7,8-tetrahydro-1,8-naphthyridin-3-yl}phenyl)methoxy]cyclopentyl}-5-(1-methyl-1H-pyrazol-4-yl)pyridine-3-carboxamide]",< 10,< 10,10 to 100,
"CN1CCC(C(=O)NC2Cc3ccc(-c4ccc(CO[C@H]5CCC[C@@H]5NC(=O)c5cc(-c6cnn(C)c6)cnc5N)cc4)cc3C2)CC1 (stereo partly drawn) [Example 10, 2-amino-N-{(1S,2S)-2-[(4-{2-[(1-methylpiperidine-4-carbonyl)amino]-2,3-dihydro-1H-inden-5-yl}phenyl)methoxy]cyclopentyl}-5-(1-methyl-1H-pyrazol-4-yl)pyridine-3-carboxamide]",< 10,10 to 100,> 1000,
"CN1CCN([C@H]2CCc3cc(-c4ccc(CO[C@H]5CCC[C@@H]5NC(=O)c5cc(C(F)(F)F)cnc5N)cc4)ccc32)CC1 [Example 143, 2-amino-N-[(1S,2S)-2-({4-[(1S)-1-(4-methylpiperazin-1-yl)-2,3-dihydro-1H-inden-5-yl]phenyl}methoxy)cyclopentyl]-5-(trifluoromethyl)pyridine-3-carboxamide]",< 10,< 10,100 to 1000,
"Cn1cc(-c2cnc(N)c(C(=O)N[C@H]3CCC[C@@H]3OCc3ccc(-c4ccc5c(c4)C[C@H](F)[C@@H]5N4CCN(CCO)CC4)cc3)c2)ccc1=O (relative stereo) [Example 90, 6-amino-N-{(1S,2S)-2-[(4-{(1R*,2S*)-2-fluoro-1-[4-(2-hydroxyethyl)piperazin-1-yl]-2,3-dihydro-1H-inden-5-yl}phenyl)methoxy]cyclopentyl}-1′-methyl-6′-oxo-1′,6′-dihydro[3,3′-bipyridine]-5-carboxamide]",< 10,< 10,> 1000,
"Cn1cc(-c2cnc(N)c(C(=O)N[C@H]3CCC[C@@H]3OCc3ccc(-c4ccc5c(ccn5C5CCN(C(=O)OC(C)(C)C)CC5)c4)cc3)c2)cn1 [Example 4, tert-butyl 4-{5-[4-({[(1S,2S)-2-{[2-amino-5-(1-methyl-1H-pyrazol-4-yl)pyridine-3-carbonyl]amino}cyclopentyl]oxy}methyl)phenyl]-1H-indol-1-yl}piperidine-1-carboxylate]",> 1000,100 to 1000,> 1000,
"COc1ccnc(N)c1C(=O)N[C@H]1CCC[C@@H]1OCc1ccc(-c2ccc3c(c2)C(C)(C)CC3N2CCN(C)CC2)cc1 (stereo partly drawn) [Example 138, 2-amino-N-[(1S,2S)-2-({4-[3,3-dimethyl-1-(4-methylpiperazin-1-yl)-2,3-dihydro-1H-inden-5-yl]phenyl}methoxy)cyclopentyl]-4-methoxypyridine-3-carboxamide]",< 10,< 10,100 to 1000,
